Calls of active or inactive are those of the source. No cut-off for these calls is given here.
Tests used:
RAW264.7 [1] = conditions: Mus musculus, at 200 µM
Description: Antiinflammatory activity in mouse RAW264.7 cells assessed as inhibition of LPS-induced NO production at 200 uM preincubated for 1 hr before LPS challenge measured after 24 hrs by Griess method

[2] = Cytotoxicity against human Jurkat T cells assessed as reduction in cell viability at 200 uM after 24 hrs by tryphan blue assay
RAW264.7 [3] = conditions: Mus musculus, at 200 µM; remark: listed apart in the source
Description: Antiinflammatory activity in mouse RAW264.7 cells assessed as inhibition of LPS-induced PGE2 production at 200 uM preincubated for 1 hr before LPS challenge measured after 24 hrs by ELISA

[4] = Induction of H2S release in phosphate buffer at 200 uM using 5,5'-dithiobis-(2-nitrobenzoic acid)

COc1ccc(P([O-])(=S)N2CCOCC2)cc1.[K+] (centres undefined)
inhibition (RAW264.7 [1]): inactive
Activity [2]: Non-toxic
inhibition (RAW264.7 [3]): inactive
Activity [4]: Not Active

— ChEMBL document CHEMBL3751739, “Investigating the generation of hydrogen sulfide from the phosphonamidodithioate slow-release donor GYY4137” (Medchemcomm, 2015)
